The source made the active and inactive calls. No cut-off for these calls is given here.
How the values were obtained:
[1] = tested on: HCT-116; test: Antiproliferative activity against human HCT116 cells after 72 hrs by MTS assay; assay type: functional, cell-based; details: HCT-116, 72 h
[2] = target: Cytochrome P450 2C9 (Homo sapiens, UniProt P11712)
[3] = target: Cytochrome P450 2D6 (Homo sapiens, UniProt P10635)
[4] = target: Cytochrome P450 3A4 (Homo sapiens, UniProt P08684)
[5] = Lipophilicity, log D of the compound; details: octanol/water
[6] = target: Cytochrome P450 2C19 (Homo sapiens, UniProt P33261)
[7] = target: Histone deacetylase 1 (Homo sapiens, UniProt Q13547); test: Inhibition of human recombinant HDAC1 expressed in Hi5 cells; design: species or system BTI-TN-5B1-4
[8] = Solubility of the compound at pH 7.4; details: buffer
[9] = target: Histone deacetylase; test: Inhibition of human HDAC in HeLa cells; assay type: cell-based
[10] = Half life in mouse at 54.8 umol/kg, po; assay type: ADME, organism-based; details: in vivo
[11] = Volume of distribution in steady state in Beagle dog at 0.8 umol/kg, iv; assay type: ADME, organism-based, Canis lupus familiaris; details: in vivo, read-out: Vdss
[12] = Clearance in Beagle dog at 0.8 umol/kg, iv; assay type: ADME, organism-based, Canis lupus familiaris; details: in vivo
[13] = Half life in mouse at 5 umol/kg, iv; assay type: ADME, organism-based; details: in vivo
[14] = Unbound ligand in Beagle dog plasma at 3 umol/kg, po; assay type: ADME, organism-based, Canis lupus familiaris; details: at 3 µmol/kg
[15] = Volume of distribution in steady state in Han Wistar rat at 2.5 umol/kg, iv; assay type: ADME, organism-based; details: in vivo, read-out: Vdss
[16] = Volume of distribution in steady state in mouse at 5 umol/kg, iv; assay type: ADME, organism-based; details: in vivo, read-out: Vdss
[17] = Half life in Beagle dog at 3 umol/kg, po; assay type: ADME, organism-based, Canis lupus familiaris; details: in vivo
[18] = Clearance in Han Wistar rat at 2.5 umol/kg, iv; assay type: ADME, organism-based; details: in vivo
[19] = Half life in Beagle dog at 0.8 umol/kg, iv; assay type: ADME, organism-based, Canis lupus familiaris; details: in vivo
[20] = Unbound ligand in Han Wistar rat plasma at 54.8 umol/kg, po; assay type: ADME, organism-based; details: at 54.8 µmol/kg
[21] = Half life in Han Wistar rat at 54.8 umol/kg, po; assay type: ADME, organism-based; details: in vivo
[22] = tested on: Homo sapiens; test: Antitumor activity against human A549a xenografted mouse at 12.5 mg/kg, po for 18 days; assay type: functional, organism-based; design: dose 12.5 mg/kg
[23] = Half life in Han Wistar rat at 2.5 umol/kg, iv; assay type: ADME, organism-based; details: in vivo
[24] = Clearance in mouse at 5 umol/kg, iv; assay type: ADME, organism-based; details: in vivo
[25] = Half life in Han Wistar rat at 70.9 umol/kg, po; assay type: ADME, organism-based; details: in vivo
[26] = Volume of distribution in steady state in Han Wistar rat at 5 umol/kg, iv; assay type: ADME, organism-based; details: in vivo, read-out: Vdss
[27] = Unbound ligand in Han Wistar rat plasma at 70.9 umol.kg, po; assay type: ADME, organism-based
[28] = Half life in Han Wistar rat at 5 umol/kg, iv; assay type: ADME, organism-based; details: in vivo
[29] = Clearance in Han Wistar rat at 5 umol/kg, iv; assay type: ADME, organism-based; details: in vivo
[30] = Half life in mouse at 70.9 umol/kg, po; assay type: ADME, organism-based; details: in vivo
[31] = Unbound ligand in mouse plasma at 54.8 umol/kg, po; assay type: ADME, organism-based
[32] = Unbound ligand in Han Wistar rat plasma at 10 umol/kg, po; assay type: ADME, organism-based
[33] = Half life in Han Wistar rat at 10 umol/kg, po; assay type: ADME, organism-based; details: in vivo

Cytochrome P450 2C9, sequence (P11712 whole entry): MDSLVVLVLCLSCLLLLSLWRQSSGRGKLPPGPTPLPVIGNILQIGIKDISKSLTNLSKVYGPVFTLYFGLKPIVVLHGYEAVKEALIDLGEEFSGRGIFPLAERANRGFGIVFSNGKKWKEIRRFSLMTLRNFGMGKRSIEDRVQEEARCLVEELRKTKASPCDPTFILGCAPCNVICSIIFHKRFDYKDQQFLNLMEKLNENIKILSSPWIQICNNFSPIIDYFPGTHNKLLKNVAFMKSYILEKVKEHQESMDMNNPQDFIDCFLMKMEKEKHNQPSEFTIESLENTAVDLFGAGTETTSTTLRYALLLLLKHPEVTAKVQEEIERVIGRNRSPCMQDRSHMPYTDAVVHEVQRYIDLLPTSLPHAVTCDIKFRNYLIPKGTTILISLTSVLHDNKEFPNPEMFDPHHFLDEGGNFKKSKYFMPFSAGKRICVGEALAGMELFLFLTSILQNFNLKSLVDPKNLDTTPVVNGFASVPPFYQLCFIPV
Cytochrome P450 2D6, sequence (P10635 whole entry): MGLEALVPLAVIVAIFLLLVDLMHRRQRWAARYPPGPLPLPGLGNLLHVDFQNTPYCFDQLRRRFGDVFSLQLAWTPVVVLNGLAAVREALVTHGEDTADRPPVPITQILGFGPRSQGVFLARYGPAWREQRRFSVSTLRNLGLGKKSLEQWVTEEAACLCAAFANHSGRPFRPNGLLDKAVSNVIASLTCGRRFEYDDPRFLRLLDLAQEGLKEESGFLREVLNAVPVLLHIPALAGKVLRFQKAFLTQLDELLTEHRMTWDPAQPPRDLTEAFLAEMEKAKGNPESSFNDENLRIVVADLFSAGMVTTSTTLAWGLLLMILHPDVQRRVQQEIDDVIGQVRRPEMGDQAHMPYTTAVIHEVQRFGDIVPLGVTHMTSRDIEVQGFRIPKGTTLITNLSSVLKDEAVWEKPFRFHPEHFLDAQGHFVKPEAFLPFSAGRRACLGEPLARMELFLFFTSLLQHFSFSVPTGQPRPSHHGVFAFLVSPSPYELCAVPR
Cytochrome P450 2C19, sequence (P33261 whole entry): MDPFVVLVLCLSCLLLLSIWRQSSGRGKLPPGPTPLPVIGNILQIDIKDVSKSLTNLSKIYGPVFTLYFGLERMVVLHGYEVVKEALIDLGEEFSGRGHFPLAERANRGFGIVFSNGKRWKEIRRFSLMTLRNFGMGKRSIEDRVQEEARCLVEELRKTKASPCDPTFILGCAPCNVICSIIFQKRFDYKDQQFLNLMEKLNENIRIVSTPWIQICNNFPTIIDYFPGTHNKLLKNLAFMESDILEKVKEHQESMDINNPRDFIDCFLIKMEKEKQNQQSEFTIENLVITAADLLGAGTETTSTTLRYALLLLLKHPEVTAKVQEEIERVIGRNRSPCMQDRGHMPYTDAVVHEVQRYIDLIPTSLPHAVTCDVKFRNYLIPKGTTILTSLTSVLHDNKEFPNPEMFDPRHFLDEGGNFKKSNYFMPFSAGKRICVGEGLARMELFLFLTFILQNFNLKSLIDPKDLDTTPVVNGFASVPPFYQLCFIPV
Histone deacetylase 1, sequence (Q13547 whole entry): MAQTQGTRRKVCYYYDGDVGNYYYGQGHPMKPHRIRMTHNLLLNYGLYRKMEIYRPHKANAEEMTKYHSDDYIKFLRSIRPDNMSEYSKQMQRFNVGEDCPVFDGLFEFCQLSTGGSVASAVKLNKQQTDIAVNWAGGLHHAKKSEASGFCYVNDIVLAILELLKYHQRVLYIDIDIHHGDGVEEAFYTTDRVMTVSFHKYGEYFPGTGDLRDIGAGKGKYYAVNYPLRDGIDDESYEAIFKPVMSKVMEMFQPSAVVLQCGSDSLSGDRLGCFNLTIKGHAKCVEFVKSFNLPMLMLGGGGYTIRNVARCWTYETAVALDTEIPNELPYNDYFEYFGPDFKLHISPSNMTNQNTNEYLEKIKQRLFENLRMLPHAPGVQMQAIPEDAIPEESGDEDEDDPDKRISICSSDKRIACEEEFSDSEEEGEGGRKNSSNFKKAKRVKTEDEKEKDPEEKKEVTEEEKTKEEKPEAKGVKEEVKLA
Cytochrome P450 3A4, sequence (P08684 whole entry): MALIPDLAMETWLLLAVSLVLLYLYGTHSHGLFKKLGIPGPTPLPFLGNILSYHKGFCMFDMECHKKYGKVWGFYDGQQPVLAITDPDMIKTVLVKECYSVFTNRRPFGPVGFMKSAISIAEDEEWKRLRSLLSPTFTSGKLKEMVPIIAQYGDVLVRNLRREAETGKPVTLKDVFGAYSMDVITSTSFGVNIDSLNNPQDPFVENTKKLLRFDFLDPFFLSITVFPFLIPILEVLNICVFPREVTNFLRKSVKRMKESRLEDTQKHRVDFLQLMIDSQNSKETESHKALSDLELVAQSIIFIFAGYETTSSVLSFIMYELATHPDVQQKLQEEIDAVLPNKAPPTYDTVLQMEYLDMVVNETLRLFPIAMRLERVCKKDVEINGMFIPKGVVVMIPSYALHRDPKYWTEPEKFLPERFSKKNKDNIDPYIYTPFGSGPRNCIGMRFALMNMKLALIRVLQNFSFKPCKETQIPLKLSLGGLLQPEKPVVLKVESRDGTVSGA

| SMILES | IC50 [1] [nM] | IC50 [2] [nM] | IC50 [3] [nM] | IC50 [4] [nM] | logD [5] | IC50 [6] [nM] | IC50 [7] [nM] | Log IC50 [9] | other results |
| --- | --- | --- | --- | --- | --- | --- | --- | --- | --- |
| Nc1ccccc1NC(=O)c1ccc(C2CCN(CCC(=O)Nc3ccccc3F)CC2)cc1 | 302 | 10000 | 10000 | 10000 | 2.76 | 10000 | 67.6 |  |  |
| CCCNCc1cnc(-c2ccc(C(=O)Nc3ccccc3N)cc2)s1 | 186 |  |  |  |  |  | 27.5 |  | solubility [8]: > 500 µM |
| Nc1ccccc1NC(=O)c1ccc(N2CCOCC2)cc1 | 7410 |  |  |  | 1.2 |  |  | -4.78 |  |
| Nc1ccccc1NC(=O)c1ccc(-c2nccs2)cc1 | 1820 |  |  |  |  |  |  |  |  |
| CN1CCC(c2ccc(C(=O)Nc3ccccc3N)cc2)CC1 | 832 |  |  |  | < 0.5 |  | 138 | -5.23 |  |
| Nc1ccccc1NC(=O)c1ccc(-c2ncc(CN3CCCCC3)s2)cc1 | 145 |  |  |  |  |  | 21.9 |  |  |
| CCNC(=O)c1ccc(CN2CCC(c3ccc(C(=O)Nc4ccccc4N)cc3)CC2)cc1 | 363 |  |  |  |  |  | 34.7 |  | half-life [10]: 3.2 h; Vd [11]: 4.2 L/kg; clearance [12]: 7 mL/min/kg; half-life [13]: 4.8 h; fraction unbound [14]: 0.33; Vd [15]: 3.5 L/kg; Vd [16]: 5 L/kg; half-life [17]: 7.2 h; clearance [18]: 16 mL/min/kg; half-life [19]: 10.2 h; fraction unbound [20]: 0.21; half-life [21]: 3.7 h; Activity [22]: Active; half-life [23]: 1.7 h; clearance [24]: 36 mL/min/kg |
| CCNCc1cnc(-c2ccc(C(=O)Nc3ccccc3N)cc2)s1 | 204 |  |  |  |  |  | 38 |  | half-life [25]: 2.1 h; Vd [26]: 7.3 L/kg; solubility [8]: > 500 µM; fraction unbound [27]: 0.54; half-life [28]: 5.2 h; clearance [29]: 38 mL/min/kg; half-life [30]: 1.1 h |
| CN(C)C(=O)c1ccc(CN2CCC(c3ccc(C(=O)Nc4ccccc4N)cc3)CC2)cc1 | 479 | > 10000 | > 10000 | > 10000 | 1.53 | > 10000 | 85.1 |  | half-life [10]: 3.8 h; Vd [26]: 3.1 L/kg; fraction unbound [31]: 0.4; fraction unbound [32]: 0.28; half-life [33]: 2.1 h; half-life [28]: 1.6 h; clearance [29]: 49 mL/min/kg |
| Nc1ccccc1NC(=O)c1ccc(C2CCN(Cc3ccccc3)CC2)cc1 | 437 |  |  |  |  |  | 44.7 | -4.57 |  |
| Nc1ccccc1NC(=O)c1ccc(N2CCN(Cc3ccccc3)CC2)cc1 | 2340 |  |  |  |  |  |  | -4.44 |  |
| Nc1ccccc1NC(=O)c1ccc(C2CCN(Cc3ccc(C(=O)NC4CC4)cc3)CC2)cc1 | 417 | > 10000 | > 10000 | > 10000 | 2.31 | > 10000 | 57.5 |  |  |
| CNC(=O)c1ccc(CN2CCC(c3ccc(C(=O)Nc4ccccc4N)cc3)CC2)cc1 | 437 | > 10000 | > 10000 | > 10000 | 1.99 | > 10000 | 30.9 |  |  |

Source: ChEMBL document CHEMBL1144842, “Design and campaign synthesis of piperidine- and thiazole-based histone deacetylase inhibitors” (Bioorg Med Chem Lett, 2008)
